In publication PMC2943414 (Journal of the American Chemical Society, 2010):

Target: flavodoxin (Nitratidesulfovibrio vulgaris, UniProt P00323, W140F)
Test: FMN retained on purification
Format: binding
Conditions: oxidized state; as purified, before FMN removal

Chain of flavodoxin (P00323 whole entry W140F): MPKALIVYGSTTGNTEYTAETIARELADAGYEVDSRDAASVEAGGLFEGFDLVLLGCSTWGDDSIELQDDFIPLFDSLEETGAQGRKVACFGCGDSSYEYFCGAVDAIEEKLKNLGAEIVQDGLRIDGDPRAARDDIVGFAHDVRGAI

## Cc1cc2nc3c(=O)[nH]c(=O)nc-3n(C[C@H](O)[C@H](O)[C@H](O)COP(=O)(O)O)c2cc1C [FMN]
  FMN retained on purification: the two flavodoxin mutants (W60FY98F and W140F) contained the oxidized FMN
